Test results taken from US11491105B2, “Methods of treating microbial infections, including mastitis” (priority 2013, dated 2022).

Tests used:
[1] = system: Staphylococcus isolates (methicillin-sensitive and methicillin-resistant); experiment: Minimum inhibitory concentration assay (Example 1); format: cell-based; details: methicillin-resistant isolates
Protocol: Forty-two isolates of Staphylococcus of varying species and strain type were collected from isolate collections. Biochemical testing including coagulase, latex agglutination testing for protein A, Vogues-Proskauer tests and resistance to polymyxin B were used to identify the species of Staphylococcus. All isolates were also screened for resistance to various antimicrobials commonly used for the treatment of infections. This was performed using the disk diffusion method and resistance standards as outlined by the CLSI. The following antimicrobials were used: amoxicillin-clavulanic acid (30 μg), cephalothin (30 μg), clindamycin (2 μg), enrofloxacin (5 μg), erythromycin (15 μg), gentamicin (10 μg), imipenem (10 μg), oxacillin (1 μg), penicillin G (10 units), tetracycline (30 μg), 1:19 trimethoprim-sulfamethoxazole (25 μg) and vancomycin (30 μg).
Minimum inhibitory concentration tests were performed according to CLSI Standards (CLSI 2012). 90 μL of one of the test compound solutions, or ampicillin, was added to the end column of a 96 well plate that contained 90 μL of CAMHB in each well. The solutions were then serially diluted across the row, leaving 2 columns for positive and negative controls (FIG. 2). A bacterial suspension was prepared by adding fresh colonies obtained from an overnight culture on Sheep Blood Agar (SBA) to a 9.1 g/L saline solution. This suspension was adjusted to a concentration of between 4×10^8 and 5×10^8 CFU/mL. Concentration of the suspension was determined by measuring optical density (OD) using a spectrophotometer at a wavelength of 600 nm where the correct concentration was determined to have an optical density of between 1.00 and 1.20. 1 mL of this suspension was added to 9 mL of saline before being added to all wells, excluding the negative control wells, in 10 μL volumes giving a final concentration of between 4×10^5 and 5×10^5 CFU/mL in each well. The tests were then incubated for 24 hours at 37° C. and then assessed both visually and using OD readings from a microplate reader at a wavelength of 600 nm. These tests were performed in duplicate but repeated if discrepancies were observed.
The minimum inhibitory concentration (MIC) was determined to be the lowest concentration of antibiotic that prevented growth of bacteria both visually and using OD readings. Direct statistical comparisons between the test compounds and ampicillin could not be performed in light of confidential information restrictions, such as restrictions on disclosure of information relating to the compound structure, such as molecular weight. Instead, MIC values were collated and used to determine the lowest concentration of each compound that was effective against 50% and 90% of isolates, referred to as the MIC50 and MIC90 respectively. These values as well as the range of MIC values were then used for direct comparisons between test compounds and for general comparisons with ampicillin.

red blood cells = experiment: Eukaryotic cell toxicity testing (erythrocyte haemolysis); format: cell-based; details: 2% blood cell solution, 37° C., one hour
Protocol: Erythrocyte haemolysis was used in order to test the toxicity of all five compounds to eukaryotic cells. Blood samples were washed using 9.1 g/L saline solution and centrifuged at 2500 rpm for 10 minutes. This process was repeated until cellular debris and partially lysed cells were removed from solution. 2 mL of the remaining blood cells were suspended in 98 mL of 9.1 g/L saline solution to produce a 2% blood cell solution, which was dispensed in 90 μL volumes into the wells of a 96 well plate. The compound solutions as well as chloramphenicol were prepared from stock solution to a concentration of 256 μg/mL (as described above). Chloramphenicol was used as a negative control for erythrocyte lysis while a ready to use solution of amphotericin B was used as a positive control. 90 μL of the compounds and controls were added to the final well in different rows. These compounds were serially diluted across the row in order to test the different concentrations of antimicrobials. Wells containing only 2% blood solution were also used to assess variation between readings from different columns on the 96 well plates. These tests were incubated at 37° C. for one hour and then assessed for lysis both visually and using a microplate reader to measure optical density at 600 nm wavelengths. Each test was performed in duplicate and then repeated in quadruplicate in order to ensure accuracy.

[2] = Residue depletion of LP1369 in milk of treated mastitis quarters (Example 9); design: species or system lactating dairy cows; details: in vivo
Protocol: Data on concentrations of LP1369 in milk from 6 quarters for IVP 1 and IVP 2 treated at 6 occasions (6 consecutive milkings) after treatment was provided by the analytical laboratory at the School of Pharmacy, University of South Australia, Adelaide, SA, Australia. The limit of quantification (LoQ) of the method for LP1369 in milk was 0.088 mg/L. The Maximum Residues level (MRL) for LP1369 is 0.010 mg/kg according to the APVMA, December 2013, Agricultural and Veterinary Chemicals Code Instrument No. 4 (MRL Standard) 2012.
In milk samples where LP1369 levels were below the LoQ, LP1369 concentration was set to 0.0001 mg/L.
Therefore, the concentrations of LP1369 in whole milk were log-transformed before calculating means and standard deviations (weighted by the volume of milk produced by each animal) for each time point, using Microsoft Excel 2010.
The determination of the depletion of any substance from milk is affected by the size of the population studied. As the number of sampled cows in this study was small, the g′ factor (a factor that provides a 99% confidence interval so that results are likely to be representative of the population) was applied to the analysis. The possibility of dispersed data was minimised by fixing the g′ factor for a population of 20 animals.
The following assumptions were made. […]

[3] = APVMA, December 2013, MRL Standard 2012; cited from earlier work
MRSA 9 = experiment: Microdilution time-kill assay; format: cell-based, Staphylococcus aureus; details: 1×MIC; increase evident after 24 hours
Protocol: Following assessment of MIC and MBC results, two compounds were chosen for analysis using microdilution time-kill assays, LP 1369 and LP 6315 and these were compared to ampicillin. Time-kill assays were performed according to the M26-A guidelines of the CLSI, with modifications. The test compounds and ampicillin were serial diluted in CAMHB across the rows of a 96 well plate and a bacterial suspension was prepared and added in the same manner as the MIC testing. […] The time points assessed were 0, 1, 2, 4, 8, 12, 24 and 48 hours after the addition of the bacterial suspension to the wells. Each test compound was tested in triplicate while ampicillin was tested in duplicate and this test was independently repeated. The bacterial strains used for the microdilution assays were chosen based on bactericidal activity evident during MBC testing. One strain from each of the categories of Staphylococcus in the isolate collection (methicillin-sensitive, methicillin resistant and coagulase negative) were selected as well as the ATCC reference strain for comparison. These strains were strains MSS 1, MSS 11, MRSA 9 and the ATCC 49775 reference strain.

| SMILES | MIC50 and MIC90 values compared with ampicillin [1] | concentration at which lysis was most visually evident (red blood cells) | concentration range in which some lysis of cells was observed (red blood cells) | clearance from treated quarters with mastitis (in words) [2] | Maximum Residues level (MRL) [3] | growth at 1×MIC (MRSA 9) |
| --- | --- | --- | --- | --- | --- | --- |
| CC[C@@H](C(=O)[C@@H](C)[C@@H](O)[C@H](C)CCc1ccc(C)c(O)c1C(=O)O)[C@H]1O[C@](CC)([C@H]2CC[C@](O)(CC)[C@H](C)O2)C[C@@H]1C [LP 1369, Lasalocid] | considerably lower than ampicillin | 64 µg/mL | 32 to 128 µg/mL | cleared rapidly | 0.010 mg/kg | – |
| CO[C@@H]1[C@@H](OC)[C@H](C)[C@@](O)(CC(=O)O)O[C@H]1[C@H](C)[C@H]1O[C@@]2(CC[C@@](C)([C@H]3CC[C@@](C)([C@@H]4O[C@@H]([C@H]5O[C@](C)(O)[C@H](C)C[C@@H]5C)C[C@@H]4O[C@@H]4C[C@H](OC)[C@@H](OC)[C@H](C)O4)O3)O2)C[C@H](O)[C@H]1C.N [LP 6315, Maduramicin] | considerably lower than ampicillin | – | – | – | – | after 48 hours this growth was no longer observed |
